Source: patent publication US20110263539A1, “SHIP 1 MODULATOR COMPOUNDS” (THE UNIVERSITY OF BRITISH COLUMBIA, priority 2006, published 2011)

What was measured:
J774.1a macrophage cells = experiment: Macrophage TNF-α production (Assay 2); format: cell-based; conditions: 10 μg/mL test compound, 100 ng/mL LPS, ELISA; note: key: a ‘+’ indicates a positive result for desired activity; a ‘−’ indicates a negative result for desired activity
Protocol: Assay 2) Macrophage TNF-α production. J774.1a macrophage cells were treated with 10 μg/mL of test compound dissolved in solvent (e.g. cyclodextran) for 40 minutes prior to the addition of 100 ng/mL LPS. Culture supernatants were collected after 2 hr and 5 hr for TNF-α determination by ELISA.

Mast cells = experiment: Stimulation of mast cells by FcεRI crosslinking (Assay 4); format: cell-based; conditions: anti-DNP IgE, DNP-HSA
Protocol: Assay 4) Stimulation of mast cells by FcåRI crosslinking. Mast cells were pre-loaded overnight in BMMC medium lacking IL-3 with 0.1 μg/ml anti-DNP IgE (SPE-7, Sigma, Oakville, Ont). For calcium flux measurements, cells were incubated with 2 μM fura 2-acetoxymethyl ester (Molecular Probes, Eugene, Oreg.) in Tyrode's buffer at 23° C. for 45 min. Cells were then washed and incubated in the presence of the test compound 30 min prior to stimulation with the indicated concentration of DNP-human serum albumin (DNP-HSA). Calcium influx was monitored by spectrofluorometry as described previously. For analysis of intracellular signaling, cells were pre-loaded with anti-DNP IgE as above, pre-treated with the test compound for 30 min at 37° C. and stimulated with 20 ng/ml DNP-HSA for 5 min. Total cell lysates were then prepared and analyzed for phospho-PKB, phospho-p38^MAPK, phospho-MAPK, Grb-2 (Cell Signalling, Mississauga, Ont) and SHIP^6 by immunoblot analysis.

[1] = tested on: neutrophil myeloperoxidase (MPO) activity; experiment: Mouse acute cutaneous anaphylaxis model (Assay 5); format: in vivo, CD1 mice
Protocol: Assay 5) Mouse acute cutaneous anaphylaxis model. 6-8 week old CD1 mice
(§1) (University of British Columbia Animal Facility, Vancouver, BC) were sensitized to the hapten DNP by cutaneous application of 25 μL of 0.5% dinitrofluorobenzene (DNFB) (Sigma, Oakville, Ont) in acetone to the shaved abdomen of mice for two consecutive days. 24 hrs later, test substances (dissolved in 10 μL of 1:2 DMSO:MeOH) were painted on the right ear while the left ear received vehicle control. 30 min after drug application, DNFB was applied to both ears to induce mast cell degranulation. A 6 mm punch was taken from the ear and immediately frozen on dry ice for subsequent determination of neutrophil myeloperoxidase (MPO) activity.
as §1, with “Mouse acute cutaneous anaphylaxis model. 6-8 week old CD1 mice (University” for “(University”, “activity. Compound 100's ability to inhibit cutaneous anaphylaxis was assessed.” for “activity.”
Anaphylactic or allergic responses are mediated by allergen-induced degranulation of pre-sensitized mast cells. The mouse ear edema/cutaneous anaphylaxis model involves pre-sensitization of mice with the haptenizing agent dinitrofluorobenzene (DNFB). One week later the allergic reaction is elicited by painting DNFB onto the ears of the mice. The efficacy of potential anti-inflammatory compounds is tested by topical application of the test substance to one ear and comparing the resulting ear edema or inflammation of the two ears.

SHIP C2 domain = experiment: Protein lipid overlay assay; format: binding; conditions: 4 μM Compound 100
Protocol: Protein lipid overlay (PLO) assays were performed essentially as described with minor modifications. Lyophilized phosphatidylinositol-3,4-bisphosphate diC16 (PIP2, Echelon Biosciences, Salt Lake City, Utah) was reconstituted in a 2:1.8 solution of methanol and water. PVDF membranes (Millipore, Missisauga, Ont) were initially wetted in methanol for 1 minute, and washed 3×5 min with water, and gently agitated in TBST buffer (20 mM Tris pH 7.5, 0.15 M NaCl (TBS) with 0.05% Tween 20) at 23° C. overnight. Treated membranes were air-dried and dilutions of reconstituted lipids were spotted in 1 μl aliquots to give the indicated amount of PIP2 per membrane spot. Membranes were dried completely and blocked with blocking buffer (3% BSA in TBS with 0.05% NaN3) for 1 h at 23° C. Purified, recombinant C2 domain was diluted into blocking buffer (5 μM final) and treated with 4 μM Compound 100 or EtOH control for 30 min at 23° C. prior to overnight incubation with the PIP2 spotted membranes. […] After washing, bound proteins were detected and quantified on a Li-Cor Odyssey scanner (Lincoln, Nebr.).
Isolated recombinant, His6-tagged C2 domain was expressed and its PI-3,4-P2 binding ability was determined using protein lipid overlay assays. Purified C2 domain was incubated with membrane strips spotted with PI-3,4-P2 and bound protein detected using an anti-His6 antibody. […]

wild-type SHIP = experiment: Scintillation proximity assay, wild-type and ΔC2 SHIP; format: binding; conditions: [3H]-Compound 100, SPA beads
Protocol: Compound 100 was radiolabelled with tritium by GE Healthcare (Piscataway, N.J.) to a specific activity of 42 Ci/mmole. Copper chelate (His-Tag) YSi SPA Scintillation Beads (GE Healthcare, Piscataway, N.J.) were diluted in 0.25% BSA/TBS to 1.5 mg/mL and recombinant, His6-tagged protein added at the indicated concentrations: wild-type (1 μM), ΔC2 SHIP enzyme (1 pM) or C2 domain (10 nM). Protein was allowed to bind 1 h at 23° C., and 250 μg of beads were aliquoted per well of a 96-well plate. 5 μCi of [^3H]-Compound 100 was added per well, the plate gently agitated for 30 min and the amount of bead associated radioactivity quantified by counting in a Wallac BetaPlate plate scintillation counter.
Isolated recombinant, His6-tagged C2 domain was expressed and its PI-3,4-P2 binding ability was determined using protein lipid overlay assays. Purified C2 domain was incubated with membrane strips spotted with PI-3,4-P2 and bound protein detected using an anti-His6 antibody. As shown in FIG. 11C the C2 domain bound PI-3,4-P2 and this binding was inhibited by Compound 100, consistent with both Compound 100 and PI-3,4-P2 interacting with the C2 domain at a common binding site.

Cc1cc(O)cc2c1[C@]1(C)CCC3C(C)(C)CCC[C@]3(C)[C@H]1C2 (stereo partly drawn) [Compound 100]
Assay Number 2: Macrophage TNF-α production (J774.1a macrophage cells): + | Assay Number 4: Stimulation of mast cells by FcεRI crosslinking (Mast cells): + | Assay Number 5: Mouse acute cutaneous anaphylaxis model ([1]; topical on ear, DNFB): + | allergen (DNFB)-induced inflammation ([1]; topically applied vs vehicle control-treated ear): dramatically inhibited | binding of C2 domain to PI-3,4-P2 (SHIP C2 domain): inhibited | binding to wild-type SHIP vs SHIP lacking C2 domain (wild-type SHIP): bound to wild-type SHIP but not to SHIP lacking its C2 domain
